# Laboratory results: PubChem BioAssay AID256 (DTP/NCI, 2004)
# Several values for one entry are separate records, joined by “and”; a condition that tells them apart may be missing. Equal entries are not always repeated. Inconclusive results and toxic doses are left out.
# System: CD2F1 mice, L1210 leukemia ip, survival T/C
# Assay: NCI In Vivo Anticancer Drug Screen. Data for tumor model L1210 Leukemia (intraperitoneal) in CD2F1 (CDF1) mice
# Conditions: higher = longer survival
# Method in brief: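 Implant tumor; dose compound or vehicle; measure endpoint in both groups; report treated divided by control.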
# [1] = endpoint: mean survival time, dose: 100.0 mg/kg/injection, schedule: Q04DX003 (ip), vehicle: saline with Tween-80
# [2] = endpoint: mean survival time, dose: 200.0 mg/kg/injection, schedule: Q04DX003 (ip), vehicle: saline with Tween-80
# [3] = endpoint: mean survival time, dose: 400.0 mg/kg/injection, schedule: Q04DX003 (ip), vehicle: saline with Tween-80
# [4] = endpoint: mean survival time, dose: 100.0 mg/kg/injection, schedule: Q01DX009 (ip), vehicle: saline with Tween-80
# [5] = endpoint: mean survival time, dose: 200.0 mg/kg/injection, schedule: Q01DX009 (ip), vehicle: saline with Tween-80
# [6] = endpoint: mean survival time, dose: 25.0 mg/kg/injection, schedule: Q04DX003 (ip), vehicle: saline
structure (smiles),measurement,setting,value
N=c1ccn(C2OC(CO)C(O)C2O)c(=O)n1O (stereo not given),T/C,"endpoint: mean survival time, dose: 16.0 mg/kg/injection, schedule: Q01DX008 (ip), vehicle: saline",156 % of control
same,T/C,"endpoint: mean survival time, dose: 16.0 mg/kg/injection, schedule: Q01DX008 (oral), vehicle: saline",110 % of control
same,T/C,"endpoint: mean survival time, dose: 32.0 mg/kg/injection, schedule: Q01DX008 (ip), vehicle: saline",161 % of control
same,T/C,"endpoint: mean survival time, dose: 64.0 mg/kg/injection, schedule: Q01DX008 (ip), vehicle: saline",170 % of control
same,T/C,"endpoint: mean survival time, dose: 128.0 mg/kg/injection, schedule: Q01DX001 (ip), vehicle: saline",101 % of control
same,T/C,"endpoint: mean survival time, dose: 128.0 mg/kg/injection, schedule: Q01DX001 (oral), vehicle: saline",96 % of control
same,T/C,"endpoint: mean survival time, dose: 128.0 mg/kg/injection, schedule: Q01DX008 (ip), vehicle: saline",176 % of control
same,T/C,"endpoint: mean survival time, dose: 128.0 mg/kg/injection, schedule: Q01DX008 (oral), vehicle: saline",156 % of control
same,T/C,"endpoint: mean survival time, dose: 128.0 mg/kg/injection, schedule: Q01DX009 (ip), vehicle: saline",206 % of control
same,T/C,"endpoint: mean survival time, dose: 128.0 mg/kg/injection, schedule: Q04DX003 (oral), vehicle: saline",103 % of control
same,T/C,"endpoint: mean survival time, dose: 256.0 mg/kg/injection, schedule: Q01DX001 (ip), vehicle: saline",102 % of control
same,T/C,"endpoint: mean survival time, dose: 256.0 mg/kg/injection, schedule: Q01DX001 (oral), vehicle: saline",100 % of control
same,T/C,"endpoint: mean survival time, dose: 256.0 mg/kg/injection, schedule: Q01DX009 (ip), vehicle: saline",214 % of control
same,T/C,"endpoint: mean survival time, dose: 256.0 mg/kg/injection, schedule: Q04DX003 (oral), vehicle: saline",110 % of control
same,T/C,"endpoint: mean survival time, dose: 512.0 mg/kg/injection, schedule: Q01DX001 (ip), vehicle: saline",111 % of control
same,T/C,"endpoint: mean survival time, dose: 512.0 mg/kg/injection, schedule: Q01DX001 (oral), vehicle: saline",103 % of control
same,T/C,"endpoint: mean survival time, dose: 512.0 mg/kg/injection, schedule: Q01DX009 (ip), vehicle: saline",120 % of control
same,T/C,"endpoint: mean survival time, dose: 512.0 mg/kg/injection, schedule: Q01DX009 (oral), vehicle: saline",167 % of control
same,T/C,"endpoint: mean survival time, dose: 512.0 mg/kg/injection, schedule: Q04DX003 (ip), vehicle: saline",153 % of control
same,T/C,"endpoint: mean survival time, dose: 1024.0 mg/kg/injection, schedule: Q01DX001 (ip), vehicle: saline",108 % of control
same,T/C,"endpoint: mean survival time, dose: 1024.0 mg/kg/injection, schedule: Q01DX001 (oral), vehicle: saline",122 % of control
same,T/C,"endpoint: mean survival time, dose: 1024.0 mg/kg/injection, schedule: Q01DX009 (ip), vehicle: saline",116 % of control
same,T/C,"endpoint: mean survival time, dose: 1024.0 mg/kg/injection, schedule: Q01DX009 (oral), vehicle: saline",210 % of control
same,T/C,"endpoint: mean survival time, dose: 1024.0 mg/kg/injection, schedule: Q04DX003 (ip), vehicle: saline",155 % of control
same,T/C,"endpoint: mean survival time, dose: 1024.0 mg/kg/injection, schedule: Q04DX003 (oral), vehicle: saline",155 % of control
CCCC(=O)NNC(=O)c1ccccn1,T/C,"endpoint: mean survival time, dose: 100.0 mg/kg/injection, schedule: Q01DX009 (ip), vehicle: saline sonified",109 % of control
same,T/C,[1],101 % of control
same,T/C,[2],104 % of control
same,T/C,[3],106 % of control
COC(CCCl)c1ccc(Cl)cc1 (stereo not given),T/C,"endpoint: mean survival time, dose: 50.0 mg/kg/injection, schedule: Q01DX009 (ip), vehicle: saline",96 % of control
same,T/C,"endpoint: mean survival time, dose: 100.0 mg/kg/injection, schedule: Q01DX009 (ip), vehicle: saline",96 % of control
same,T/C,[1],96 % of control
same,T/C,"endpoint: mean survival time, dose: 200.0 mg/kg/injection, schedule: Q01DX009 (ip), vehicle: saline",98 % of control
same,T/C,[2],87 % of control
CN(C)C(=O)Nc1ccc(Cl)cc1,T/C,"endpoint: median survival time, dose: 12.5 mg/kg/injection, schedule: Q01DX009 (ip), vehicle: saline",100 % of control
same,T/C,"endpoint: median survival time, dose: 25.0 mg/kg/injection, schedule: Q01DX009 (ip), vehicle: saline",100 % of control
same,T/C,"endpoint: median survival time, dose: 50.0 mg/kg/injection, schedule: Q01DX009 (ip), vehicle: saline",103 % of control
same,T/C,"endpoint: median survival time, dose: 100.0 mg/kg/injection, schedule: Q01DX009 (ip), vehicle: saline",100 % of control
same,T/C,"endpoint: median survival time, dose: 200.0 mg/kg/injection, schedule: Q01DX009 (ip), vehicle: saline",101 % of control
same,T/C,"endpoint: median survival time, dose: 400.0 mg/kg/injection, schedule: Q01DX009 (ip), vehicle: saline",100 % of control
CN(C)Cc1ccc(C(C)(C)C)cc1Br,T/C,"endpoint: mean survival time, dose: 12.5 mg/kg/injection, schedule: Q01DX009 (ip), vehicle: water",98 % of control
same,T/C,"endpoint: mean survival time, dose: 25.0 mg/kg/injection, schedule: Q01DX009 (ip), vehicle: water",95 % of control
same,T/C,"endpoint: mean survival time, dose: 50.0 mg/kg/injection, schedule: Q01DX009 (ip), vehicle: water",98 % of control
same,T/C,"endpoint: mean survival time, dose: 100.0 mg/kg/injection, schedule: Q01DX009 (ip), vehicle: water",98 % of control
same,T/C,"endpoint: mean survival time, dose: 200.0 mg/kg/injection, schedule: Q01DX009 (ip), vehicle: water",104 % of control
O=C1C(=O)C(Br)=C(Br)C(Br)=C1Br,T/C,[1],91 % of control
same,T/C,[2],91 % of control
CC(CP(=O)(c1ccccc1)c1ccccc1)C(O)(C(=O)c1ccccc1)c1ccccc1 (stereo not given),T/C,[4],95 % of control
same,T/C,[1],97 % of control
same,T/C,[5],97 % of control
same,T/C,[2],94 % of control
same,T/C,[3],102 % of control
COC(=O)[C@]1(C)CCC[C@]2(C)c3cc(C(C)=O)c(C(C)C)cc3CC[C@@H]12,T/C,[4],97 % of control
same,T/C,[5],97 % of control
same,T/C,"endpoint: mean survival time, dose: 400.0 mg/kg/injection, schedule: Q01DX009 (ip), vehicle: saline with Tween-80",100 % of control
CCCCNCCN(CC)CC,T/C,"endpoint: mean survival time, dose: 25.0 mg/kg/injection, schedule: Q01DX009 (ip), vehicle: saline with Tween-80",94 % of control
same,T/C,[6],94 % of control
same,T/C,"endpoint: mean survival time, dose: 50.0 mg/kg/injection, schedule: Q01DX009 (ip), vehicle: saline with Tween-80",96 % of control
same,T/C,"endpoint: mean survival time, dose: 50.0 mg/kg/injection, schedule: Q04DX003 (ip), vehicle: saline",89 % of control
same,T/C,[4],93 % of control
same,T/C,"endpoint: mean survival time, dose: 100.0 mg/kg/injection, schedule: Q04DX003 (ip), vehicle: saline",97 % of control
O=S(=O)(O)SNCCN1CCOCC1,T/C,"endpoint: mean survival time, dose: 6.25 mg/kg/injection, schedule: Q01DX009 (ip), vehicle: saline",106 % of control
same,T/C,"endpoint: mean survival time, dose: 6.25 mg/kg/injection, schedule: Q04DX003 (ip), vehicle: saline",104 % of control
same,T/C,"endpoint: mean survival time, dose: 12.5 mg/kg/injection, schedule: Q01DX009 (ip), vehicle: saline",98 % of control
same,T/C,"endpoint: mean survival time, dose: 12.5 mg/kg/injection, schedule: Q04DX003 (ip), vehicle: saline",102 % of control
same,T/C,"endpoint: mean survival time, dose: 25.0 mg/kg/injection, schedule: Q01DX009 (ip), vehicle: saline",107 % of control
same,T/C,[6],101 % of control
O=C(O)CCCCCCCC(=O)O,T/C,"endpoint: median survival time, dose: 6.25 mg/kg/injection, schedule: Q01DX009 (ip), vehicle: distilled water + Tween-80",101 % of control
same,T/C,"endpoint: median survival time, dose: 12.5 mg/kg/injection, schedule: Q01DX009 (ip), vehicle: distilled water + Tween-80",95 % of control
same,T/C,"endpoint: median survival time, dose: 25.0 mg/kg/injection, schedule: Q01DX009 (ip), vehicle: distilled water + Tween-80",101 % of control
same,T/C,"endpoint: median survival time, dose: 50.0 mg/kg/injection, schedule: Q01DX009 (ip), vehicle: distilled water + Tween-80",89 % of control
same,T/C,"endpoint: median survival time, dose: 100.0 mg/kg/injection, schedule: Q01DX009 (ip), vehicle: distilled water + Tween-80",97 % of control
COC1/C=C\C=C(/C)C(=O)NC2=CC(=O)C=C(C2=O)C(OC)C(C)CC(OC)C(OC)C(C)/C=C(/C)C1OC(N)=O (stereo not given),T/C,"endpoint: mean survival time, dose: 0.18 mg/kg/injection, schedule: Q01DX009 (ip), vehicle: Klucel (hydroxypropylcellulose) (HPC)",108 % of control
same,T/C,"endpoint: mean survival time, dose: 0.37 mg/kg/injection, schedule: Q01DX009 (ip), vehicle: Klucel (hydroxypropylcellulose) (HPC)",107 % of control
same,T/C,"endpoint: mean survival time, dose: 0.75 mg/kg/injection, schedule: Q01DX009 (ip), vehicle: Klucel (hydroxypropylcellulose) (HPC)",120 % of control and 98 % of control
same,T/C,"endpoint: mean survival time, dose: 1.5 mg/kg/injection, schedule: Q01DX009 (ip), vehicle: Klucel (hydroxypropylcellulose) (HPC)",93 % of control and 103 % of control
same,T/C,"endpoint: mean survival time, dose: 3.0 mg/kg/injection, schedule: Q01DX009 (ip), vehicle: Klucel (hydroxypropylcellulose) (HPC)",95 % of control and 105 % of control
COc1ccc(N=NN(C)C(=O)c2ccccc2)cc1,T/C,"endpoint: mean survival time, dose: 50.0 mg/kg/injection, schedule: Q01DX009 (ip), vehicle: Klucel (hydroxypropylcellulose) (HPC)",107 % of control
same,T/C,"endpoint: mean survival time, dose: 100.0 mg/kg/injection, schedule: Q01DX009 (ip), vehicle: Klucel (hydroxypropylcellulose) (HPC)",117 % of control
same,T/C,"endpoint: mean survival time, dose: 400.0 mg/kg/injection, schedule: Q01DX009 (ip), vehicle: Klucel (hydroxypropylcellulose) (HPC)",161 % of control
Cc1cc(C)cc(C(C)C)c1,T/C,[4],98 % of control
same,T/C,[5],101 % of control
O=C(COCC(=O)N/N=C/c1ccc(Cl)c(Cl)c1)N/N=C/c1ccc(Cl)c(Cl)c1,T/C,"endpoint: mean survival time, dose: 100.0 mg/kg/injection, schedule: Q01DX001 (ip), vehicle: saline with Tween-80",94 % of control
same,T/C,"endpoint: mean survival time, dose: 200.0 mg/kg/injection, schedule: Q01DX001 (ip), vehicle: saline with Tween-80",94 % of control
same,T/C,"endpoint: mean survival time, dose: 400.0 mg/kg/injection, schedule: Q01DX001 (ip), vehicle: saline with Tween-80",96 % of control
